# Experimental data published in patent publication US7608242B2, “Peptide-chelate conjugates” (GE Healthcare Limited, priority 2001, dated 2009).
# Ends that are not written are not given here. Peptide text beside a SMILES is read from it. * marks the point of attachment. X1 = CCOC(C)SCC(=O)NC(CCCC(=O)*)C(=O)NCC(=O)NCC(=O)O
# Experiments:
# [1] = molecular target: T1, ST receptor (rat intestinal membrane) (Rattus norvegicus, UniProt P23897); assay: Competition binding assay against [125I]ST1-17
# T1 construct: in 96 well plates containing ca. 1 μg rat intestinal membrane; from tissue; host or cells: rat intestinal membrane
# T1 sequence (P23897 23-1072): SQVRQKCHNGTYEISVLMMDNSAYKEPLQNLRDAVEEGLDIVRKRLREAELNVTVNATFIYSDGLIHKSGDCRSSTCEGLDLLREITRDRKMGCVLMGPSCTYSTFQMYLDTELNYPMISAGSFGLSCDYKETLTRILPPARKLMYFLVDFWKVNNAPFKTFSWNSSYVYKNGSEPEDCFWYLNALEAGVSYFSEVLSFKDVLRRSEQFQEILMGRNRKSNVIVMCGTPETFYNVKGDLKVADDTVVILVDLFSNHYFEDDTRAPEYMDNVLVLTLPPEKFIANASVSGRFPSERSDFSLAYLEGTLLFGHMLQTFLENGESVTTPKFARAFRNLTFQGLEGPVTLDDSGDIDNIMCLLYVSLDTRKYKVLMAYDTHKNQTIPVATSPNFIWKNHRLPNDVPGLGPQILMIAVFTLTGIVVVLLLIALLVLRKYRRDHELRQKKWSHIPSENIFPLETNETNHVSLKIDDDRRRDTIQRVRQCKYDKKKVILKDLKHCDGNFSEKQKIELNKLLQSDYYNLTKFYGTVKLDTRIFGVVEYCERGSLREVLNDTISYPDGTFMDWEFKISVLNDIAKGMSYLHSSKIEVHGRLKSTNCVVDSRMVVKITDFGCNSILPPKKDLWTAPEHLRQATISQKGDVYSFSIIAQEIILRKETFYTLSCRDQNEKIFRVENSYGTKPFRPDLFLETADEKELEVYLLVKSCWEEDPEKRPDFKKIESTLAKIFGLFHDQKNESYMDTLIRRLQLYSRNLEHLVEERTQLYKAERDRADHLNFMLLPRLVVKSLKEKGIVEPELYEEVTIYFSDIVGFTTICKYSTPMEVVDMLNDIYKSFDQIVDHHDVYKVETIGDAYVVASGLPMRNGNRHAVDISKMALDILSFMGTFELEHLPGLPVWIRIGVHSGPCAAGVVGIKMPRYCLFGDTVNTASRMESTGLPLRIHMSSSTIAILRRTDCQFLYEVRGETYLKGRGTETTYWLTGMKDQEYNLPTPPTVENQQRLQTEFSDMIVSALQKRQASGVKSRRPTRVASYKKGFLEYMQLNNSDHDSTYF
# Procedure: Compounds were assessed for their potency by radioligand binding assay to determine inhibition constant (Ki) as a measure of potency of binding. Methods are described elsewhere, but briefly, [^125I]ST1-17 was competed with cold ST compounds (0.0001-50 μM) in 96 well plates containing ca. 1 μg rat intestinal membrane and incubated 1 hr, 37° C. Samples were filtered (GF/B filters, Whatman) to retrieve bound radiolabelled peptide and counted to determine % Bound/Free.
# Potency of compounds was determined by inhibition constant (Ki) for their ability to compete with radioligand, [^125I]ST1-17.
# T84 liver tumours = assay: Imaging in liver metastases model; assay type: in vivo, rat; conditions: image of Example 21 (FIG. 8)
# Procedure: The image is a whole body image with background counts removed and kidneys masked. Image tumour:liver ratio was typically 2.5.
# The liver metastases model was used in both mice and rats. As for the subcutaneous tumour model except in establishing tumours, cells were injected via the spleen and allowed to transfer to the liver via the circulation. Two minutes after injection of cells, a splenectomy was performed. Animals were allowed to generate tumours over 6-8 weeks.
# Tumours were grown in animal as described in Example 20. Animals were monitored for tumour growth for 8 to 10 weeks, until tumours were 0.5-1 cm in size. After this time, animals were injected with test article (0.1 ml, 200 MBq/ml) as an intravenous bolus via the tail vein. At various times p.i. animals were euthanased and whole body planar images acquired between 5 minutes and 24 hours p.i. using a gamma camera (Park Medical Isocam-1). Image acquisition times were typically 15-30 min or 150-250K counts (whole body, LEUHR collimator). […] The image has the kidneys masked to improve the resolution of the imaged metastases.
# [2] = system: sub-cutaneous T84 tumours; assay: Uptake of labelled conjugate and negative control into CRC tumours; assay type: in vivo, mouse; conditions: CD-1 nude mice bearing s.c. T84 tumours
# [3] = system: T84 tumours subcutaneously; assay: Imaging in the subcutaneous tumour model (planar gamma camera); assay type: in vivo, mouse; conditions: HPLC purified, 20 MBq per animal
# Procedure: Tumour to liver ratios were; 1.1 at 15 minutes, 2 at 60 minutes and 4 at 120 minutes.
# Tumours were grown as in Example 17. Animals were monitored for tumour growth for 8 to 10 weeks, until tumours were 0.5-1 cm in size. After this time, animals were injected with test article (0.1 ml, 20 MBq/ml or 200 MBq/ml) as an intravenous bolus via the tail vein. At various times p.i. animals were euthanased and whole body planar images acquired between 5 minutes and 24 hours p.i. using a gamma camera (Park Medical Isocam-1). Image acquisition times were typically 15-30 min or 150-250K counts (whole body, LEUHR collimator).
# [4] = system: sub-cutaneous T84 tumours (T84 human colon carcinoma cells); assay: Biodistribution in a subcutaneous tumour model; assay type: in vivo, mouse; conditions: 60 min p.i.
# Procedure: The sub-cutaneous model was used as an appropriate initial in vivo screen. Briefly, mice (female nude CD-1, ca. 20 g; Charles River) were injected sub-cutaneously into the neck with T84 human colon carcinoma cells (0.1 ml, 1×10^8 cells/ml in medium) through a 23-gauge needle and allowed to develop tumours over 6-8 weeks.
# At least three animals per test point were studied. Results are expressed as % injected dose per gram (% ID/g) of tissue.
# Compounds were screened for their uptake into sub-cutaneous T84 tumours in the mouse (Table IV). This model allows assessment of the imageability of CA1-ST5-18 by allowing comparison between tumour and background tissue uptake.
# [5] = molecular target: T1, ST receptor (rat intestinal membrane); assay: Radioactive binding assay of HPLC purified radiolabelled compounds; conditions: ca. 0.05 nM radiolabelled compound, 6 μg rat intestinal membrane, one hour
# Procedure: To determine whether radiolabelling affected the binding of the compound, labelled compounds were tested for their ability to bind the receptor. Briefly HPLC purified radiolabelled compounds (ca. 0.05 nM) were incubated with 6 μg/150 μl final volume of rat intestinal membrane (one hour), in the presence and absence of competing peptide (50 μM ST5-18). Samples were filtered (GF/B filters, Whatman) to retrieve bound radiolabelled peptide and counted to determine % Bound/Free. Non-specific binding accounted for less than 1% in all cases.
# In order to ensure that potency was maintained post-labelling, an assay measuring binding of labelled compounds was developed.
# [6] = Mean Ki value (nM), competition with [125I]ST1-17, ca. 1 μg rat intestinal membrane, 1 hr, 37° C., means of triplicate wells
compound,measurement,setting,value
C/C(=N/O)C(C)(C)NCCN(CCNC(=O)CCC(=O)NCC(=O)NCC(=O)NCC(=O)NC(CCC(=O)O)C(=O)NC(CCC(=O)O)C(=O)NC(CCC(=O)O)C(=O)N[C@H]1CSSC[C@@H]2NC(=O)[C@@H]3CSSC[C@@H](C(=O)N[C@@H](Cc4ccc(O)cc4)C(=O)O)NC(=O)CNC(=O)[C@H](C)NC(=O)[C@H](CSSC[C@H](NC1=O)C(=O)N[C@@H](CCC(=O)O)C(=O)N[C@@H](CC(C)C)C(=O)N3)NC(=O)[C@H](C)NC(=O)[C@@H]1CCCN1C(=O)[C@H](CC(N)=O)NC2=O)CCNC(C)(C)/C(C)=N\O (some centres unmarked) [CA1-gly3-Dglu3-ST5-18],Ki,"[1]; Ki, competition binding",1 nM
CC(C)C[C@@H]1NC(=O)[C@H](CCC(=O)O)NC(=O)[C@@H]2CSSC[C@@H]3NC(=O)[C@H](C)NC(=O)[C@@H]4CCCN4C(=O)[C@H](CC(N)=O)NC(=O)[C@H](CSSC[C@H](N)C(=O)N2)NC(=O)[C@H](CSSC[C@@H](C(=O)N[C@@H](Cc2ccc(O)cc2)C(=O)O)NC(=O)CNC(=O)[C@H](C)NC3=O)NC1=O [ST5-18],Ki,"[1]; Ki, competition binding",0.4 nM
C/C(=N/O)C(C)(C)NCCN(CCNC(=O)CCC(=O)N[C@H]1CSSC[C@@H]2NC(=O)[C@@H]3CSSC[C@@H](C(=O)N[C@@H](Cc4ccc(O)cc4)C(=O)O)NC(=O)CNC(=O)[C@H](C)NC(=O)[C@H](CSSC[C@H](NC1=O)C(=O)N[C@@H](CCC(=O)O)C(=O)N[C@@H](CC(C)C)C(=O)N3)NC(=O)[C@H](C)NC(=O)[C@@H]1CCCN1C(=O)[C@H](CC(N)=O)NC2=O)CCNC(C)(C)/C(C)=N\O [CA1-ST5-18],Ki,[1]; [6],2.8 nM
same,Ki,"[1]; Mean Ki value (nM), mock-labelled (subjected to the radiolabelling protocol in the absence of radiometal)",3.5 nM
CCOC(C)SCC(=O)NC(CCCC(=O)N[C@H]1CSSC[C@@H]2NC(=O)[C@@H]3CSSC[C@@H](C(=O)N[C@@H](Cc4ccc(O)cc4)C(=O)O)NC(=O)CNC(=O)[C@H](C)NC(=O)[C@H](CSSC[C@H](NC1=O)C(=O)N[C@@H](CCC(=O)O)C(=O)N[C@@H](CC(C)C)C(=O)N3)NC(=O)[C@H](C)NC(=O)[C@@H]1CCCN1C(=O)[C@H](CC(N)=O)NC2=O)C(=O)NCC(=O)NCC(=O)O (some centres unmarked) [CA3-ST5-18],Ki,"[1]; Ki value (nM), Table IV screening data",0.8 nM
same,Ki,"[1]; Ki, competition binding",0.8 nM
same,Ki,[1]; [6],0.8 nM
"99mTc-labelled CA1-ST5-18: CA1-ST5-18 peptide-chelate conjugate radiolabelled with 99mTc (CCELCCNPACAGCY; disulfide (positions not given here); not fully specified (N-terminus); ends not checked; also: 99mTc label chelated by CA1, three disulfides, pairing not given here)",tumour:liver ratio based on ROI analysis,T84 liver tumours,1.5-3.0
same,uptake into tumour (FIG. 5),[2],good uptake
same,Tumour to liver ratio (image),[3]; 15 minutes,1.1
same,Tumour to liver ratio (image),[3]; 60 minutes,2
same,Tumour to liver ratio (image),[3]; 120 minutes,4
same,excreted / cleared via urine,[4],greater than 90%
same,"binding, % of added radioactive material",[5],6%
"CCOC(C)SCC(=O)NC(CCCC(=O)N[C@@H](C)C(=O)N[C@@H](C)C(=O)N[C@@H](CCC(=O)O)C(=O)N[C@@H](CC(C)C)C(=O)N[C@@H](C)C(=O)N[C@@H](C)C(=O)N[C@@H](CC(N)=O)C(=O)N1CCC[C@H]1C(=O)N[C@@H](C)C(=O)N[C@@H](C)C(=O)N[C@@H](C)C(=O)NCC(=O)N[C@@H](C)C(=O)N[C@@H](Cc1ccc(O)cc1)C(=O)O)C(=O)NCC(=O)NCC(=O)O (some centres unmarked) [CA3-ST5-18(cys-ala), reference compound] (X1-AAELAANPAAAGAY-OH)",Ki value (nM),[1]; Table IV screening data,none
same,Ki,[1]; competition binding,no binding
same,Mean Ki value (nM),"[1]; competition with [125I]ST1-17, ca. 1 μg rat intestinal membrane, 1 hr, 37° C., means of triplicate wells",none
